# In patent US6642201B1, “Use of a dipeptide for stimulating repair processes” (priority 1998, dated 2003):
# Marks after values point to notes of the source that are not given here. Where a SMILES comes first, the peptide text is derived from it.
# Key:
# white outbred mice = experiment: Sub-acute toxicity, daily intramuscular administration for 90 days; assay type: in vivo; settings: i.m. daily 0.3, 1, 3 mg/kg for 90 days; doses exceeding therapeutic 100-1000 times
# Experimental: The study of sub-acute toxicity of L-Lys-L-Glu dipeptide is carried out on 60 white outbred mice with body weight […]. The animals of experimental groups were exposed daily to a single administration of the drug intramuscularly for 90 days in doses 1 mg/kg, 0.3 mg/kg, 3 mg/kg in 0.5 ml of sodium chloride solution. The animals of control groups were administered with sodium chloride solution in the same quantity.
# During the whole period of Investigation the animals were under daily control. There was monitored animal behavior, as well as chow and water consumption, condition of hairy and mucous surfaces. The animals were weighed weekly. Morphological composition and properties of peripheral blood were studied prior to and an the 30th, 60th, and 90th day of drug administration. Biochemical and coagulologic indices of the blood were studied upon experiment completion.
# rats = experiment: Chronic toxicity, daily intramuscular administration for 6 months; assay type: in vivo; settings: i.m. daily 0.3, 1, 3 mg/kg for 6 months
# Experimental: Chronic toxicity of L-Lys-L-Glu dipeptide obtained by the claimed method was studied during its longitudinal administration to rats with body weight […]. The animals of experimental groups were exposed daily to single intramuscular administration of the substance in doses 1 mg/kg, 0.3 mg/kg, 3 mg/kg in 0.5 ml of sodium chloride solution for 6 months. There was analyzed animal behavior, as well as chow and water consumption, condition of hairy and of mucous surfaces. The animals were weighed daily during the first 3 months of the experiment and then once a month. In 3 months after the onset of administration and upon completion of the experiment hematological and biochemical examinations functions of cardiovascular system, liver, pancreas. kidney, and adrenal gland were conducted and estimated. Upon the termination of the drug administration some animals were exposed to pathomorphological examination with the purpose of studying the state of various departments of the brain and spinal marrow, heart, aorta, lungs, liver, organs of endocrine and immune systems.
# [1] = test system: purulent incised crushed wounds of the femural soft tissues; experiment: Healing of purulent incised crushed wounds of the soft tissues; assay type: in vivo, shinshilla rabbits; parameters: key to Fibroblasts / Histiocytes / Leukocyles / Macrophases / Necrosis: 1 point - absent; 2 points - single (traces); 3 points - few; 4 points - diffuse (moderately); 5 points - many-,; 6 points - very many
# From the text: (§1) The efficacy of L-Lys-L-Glu dipeptide was estimated on the model of purulent incised crushed wounds of the femural soft tissues in shinshilla rabbits of both sexes with body weight 2-3 kg. Therefore, the rabbits underwent shaving in the area of femural soft tissues with subsequent incision 5 cm long and 2 sm deep. Soft tissues (muscles, subcutaneous fat) were crushed with Kocher 's forcepts and infected with the pathogenic mixture Staphylococcus aureus, strain 186. Afterwards, the wound was sutured. In 72 hours the sutures were lifted; and the wound was treated with 3% solution of hydrogen peroxide.
# (§2) The animals of experimental group were injected intramuscularly every day for five days with dipeptide L-Lys-L-Glu in a single dose 1 μkg per injection. Control rabbits were injected with sodium chloride solution according to the same scheme. In the process of treatment the wounds were treated with antiseptic remedies for external use.
# (§3) The estimation of L-Lys-L-Glu dipeptide efficacy in the dynamics of the inflammatory process regression was based on the terms of crust rejection and wound clearance from the pyo-necrotic mass, and appearance of the granular tissue in the wound and beginning of edge epithelization. […] The activity of tissue enzymes was also estimated (5,6,7).
# regenerating liver cells = experiment: Compensatory regeneration of the liver after partial hepatectomy; assay type: in vivo, white outbred male rats
# Experimental: The research has been conducted on 26 white outbred male rats weighing 150-200 grams. The animals were divided into thee following groups:
# 3 group—rats which had undergone the operation and were subsequently (2 and 24 hours after the operation) administered two subcutaneous injections of L-Lys-L-Glu dipeptide (0,1 μkg per rat).
# At the same time, the animals of the first and second groups were made injections of the same volume of the […]. The extracted liver was preserved formalin.
# The rats, which had been operated on, were killed by means of ether 32 and 96 hours after the operation. The rats from the control group were killed too, simultaneously. Their livers were preserved in formalin. After staining the preparations with hematoxilin-eosin, the mitotic index in the liver cells was defined, as well as the quantity of polyploid cells in the S-phase cell cycle (the quantity of dividing cells).
# [2] = test system: purulent incised crushed wounds of the femural soft tissues; experiment: Healing of purulent incised crushed wounds of the soft tissues; assay type: in vivo, shinshilla rabbits; parameters: key: 1 point - absent; 2 points - single (traces); 3 points - few; 4 points - diffuse (moderately); 5 points - many-;; 6 points - very many; settings: rabbits, 1 μkg i.m. daily 5 days
# From the text: as §1, §2, §3
# [3] = rabbits, 1 μkg i.m. daily 5 days
# [4] = rabbits, 1 μkg i.m. daily 5 days, day 6
# [5] = rabbits, 1 μkg i.m. daily 5 days, day 14
# [6] = rabbits, 1 μkg i.m. daily 5 days, day 21
# [7] = rabbits, 1 μkg i.m. daily 5 days, day 29
# [8] = rabbits, 1 μkg i.m. daily 5 days, day 40
# [9] = 32 hours After partial hepatectomy, 0,1 μkg per rat s.c. at 2 and 24 hours
# [10] = 32 hours group, Before (pre-operation index)
# [11] = 96 hours After partial hepatectomy, 0,1 μkg per rat s.c. at 2 and 24 hours
# [12] = 96 hours group, Before (pre-operation index)
smiles,measurement,setting,value
"NCCCC[C@H](N)C(=O)N[C@@H](CCC(=O)O)C(=O)O [L-Lys-L-Glu dipeptide, L-lysil-L-glutamic acid] (H-Lys-Glu-OH)","side effects, sub-acute toxicity",white outbred mice,absence of side effects
same,"side effects, chronic toxicity",rats; doses exceeding therapeutic 100-1000 times,absence of side effects
same,"pathological changes (general state, blood indices, intrinsic organs, cardio-vascular, respiratory, liver and kidney functions)",rats; rats,no pathological changes
same,activity of acid phosphatase in histiocytes,[1]; phase of proliferation (14-28 days),high activity of acid phosphatase in histiocytes
same,Terms of complete clearance of the wound surface from necrotizing tissues,[1]; [3],14.2 + −1.3* days
same,Terms of the wound epithelization,[1]; [3],24.9 + −1.9* days
same,Terms of tile onset of necrotizing tissue rejection form the wound surface,[1]; [3],8.3 + −1.1*
same,Fibroblasts,[1]; [4],4*
same,Histiocytes,[1]; [4],4
same,Leukocyles,[1]; [4],5
same,Macrophases,[1]; [4],3
same,Necrosis,[1]; [4],3*
same,Fibroblasts,[1]; [5],5*
same,Histiocytes,[1]; [5],5*
same,Leukocyles,[1]; [5],5
same,Macrophases,[1]; [5],3
same,Necrosis,[1]; [5],2*
same,Fibroblasts,[1]; [6],5
same,Histiocytes,[1]; [6],5
same,Leukocyles,[1]; [6],4
same,Macrophases,[1]; [6],2
same,Necrosis,[1]; [6],2*
same,Fibroblasts,[1]; [7],5
same,Histiocytes,[1]; [7],4
same,Leukocyles,[1]; [7],4*
same,Macrophases,[1]; [7],2
same,Necrosis,[1]; [7],1
same,Fibroblasts,[1]; [8],6*
same,Histiocytes,[1]; [8],6*
same,Leukocyles,[1]; [8],2
same,Macrophases,[1]; [8],2*
same,Necrosis,[1]; [8],1
same,activity of alkaline phosphatase in foci of leukocytory infiltration and vascular endothelium,"[1]; rabbits, wound tissue",high activity of alkaline phophotase
same,% of cells in the phase of DNA synthesis,regenerating liver cells; [9],3.882 ± 0.8391″ %
same,Mitotic index,regenerating liver cells; [9],2.314 ± 0.4611 %
same,Total number of dividing cells,regenerating liver cells; [9],6.196 ± 1.279 %
same,"increasing number of mitoses, DNA-synthesizing cells and overall amount of dividing cells",regenerating liver cells; 32 hours after partial hepatectomy,does become trustworthy
same,% of cells in the phase of DNA synthesis,regenerating liver cells; [10],0.870 ± 0.100%
same,Total number of dividing cells,regenerating liver cells; [10],1.320 ± 0.159%
same,Mitotic index,"regenerating liver cells; 32 hours group, Before (pre-operation index), % of the total number of liver cells",0.450 ± 0.067%
same,% of cells in the phase of DNA synthesis,regenerating liver cells; [11],4.664 ± 1.315 %
same,Mitotic index,regenerating liver cells; [11],4.846 ± 0.334*& %
same,Total number of dividing cells,regenerating liver cells; [11],9.510 ± 1.609 %
same,number of cells in the S-phase compared to the second (control) group,regenerating liver cells; 96 hours after hepatectomy,did not differ reliably
same,number of dividing cells bigger than with rats injected with the sodium hydrochloride,regenerating liver cells; 96 hours after hepatectomy,75%
same,number of mitoses compared to rats injected with the sodium hydrochloride,regenerating liver cells; 96 hours after hepatectomy,twice as big
same,% of cells in the phase of DNA synthesis,regenerating liver cells; [12],0.982 ± 0.141%
same,Mitotic index,regenerating liver cells; [12],0.294 ± 0.084%
same,Acid phosphotase in histiocytes,[2]; day 6,5*
same,Alcaline phosphotase in vessels,[2]; day 14,5
same,Acid phosphotase in histiocytes,[2]; day 21,5
same,Alcaline phosphotase in leukocytes,[2]; day 21,5
same,Alcaline phosphotase in vessels,[2]; day 21,5*
same,Acid phosphotase in histiocytes,[2]; day 28,5*
same,Acid phosphotase in histiocytes,[2]; day 40,5*
same,Alcaline phosphotase in leukocytes,[2]; day 40,5
